Read-outs that look alike come from different tables or passages of the source.

Assay [1] deals with MDA-MB-231 cells. In words: MTT cell proliferation assay in MDA-MB-231 cells (parental, Sc, Si α5, Si α9). Type of assay: cell-based, human. The source says: A) Detection of nAChR subunits by reverse transcription-polymerase chain reaction (RT-PCR) in normal and cancerous human breast cell lines. MCF-7, MDA-MB-231, AU-565, MDA-MB-453, and BT-483 are transformed human breast cancer cells; MCF-10A and HBL-100 are considered normal human breast cells. The expression profiles of nAChR subunits in human SAEC (small airway epithelial), NHBE (normal human bronchial epithelial), and H157 (lung cancer) cells were also examined as described previously (West K A, Brognard J, Clark A S, et al. J Clin Invest 2003; 111(1):81-90). B) Relative mRNA expression of different nAChR subunits in normal and tumor human breast tissues isolated from 50 breast cancer patients. The cDNA was used for RT-PCR analysis and the experiment was repeated twice. Percent of occurrence is shown. C) Expression of the α5 and α9 nAChR subunits in stable MDA-MB-231 cell lines that express α9-nAChR (Si α9), α5-nAChR (Si α5), or scrambled (Sc) short interfering RNAs (siRNAs). […] Levels of α5 and α9 mRNAs were determined by RT-PCR, and levels of the α5 and α9 proteins by western blotting (WB). In each case, glyceraldehyde 3-phosphate dehydrogenase (GADPH) expression served as a control. D) Cell proliferation in Si α5, Sc, and parental MDA-MB-231 cells treated with dimethylsulfoxide DMSO vs nicotine, and in cells treated with DMSO vs the nicotine metabolite, 4-(methylnitrosamino)-1-(3-pyridyl)-1-butanone (NNK). Parental MDA-MB-231 cells (231) and 231 cells stably transformed the Si α5-, Sc-, or Si α9-siRNAs were treated with either nicotine (10 μM), NNK (1 μM), or vehicle alone in the absence of continued G418 selection afterwards. […] Cell proliferation was measured by the 3-(4,5-dimethylthiazol-2-yl)-2,5-diphenyltetrazolium (MTT) assay, in which a greater number of cells was reflected by an increased OD540 nm at the indicated time points. The experiment was repeated four times with duplicate samples. Data points represent the mean; error bars indicate 95% confidence intervals. The data were analyzed by nonparametric two-sided tests (Kruskal-Wallis and Mann-Whitney tests). […] E) Confocal microscopy of α9-nAChR expression in human breast cancer (MCF-7) cells. Immunofluorescence with a fluorescein isothiocyate-conjugated secondary antibody was used to detect the α9-nAChR, whereas a rhodamine-conjugated fluorescent antibody was used for caveolin-1 labeling. Localization of α9-nAChR (left, green), the membrane protein caveolin-1 (middle, red), and the merged image (right, yellow) are shown. Scale bar=25 μm. F) Dose-dependent binding of [^3H]-nicotine to the endogenous α9-nAChR receptor in human breast cancer MDA-MB-231 cells (left panel) and time-dependent [^3H]-nicotine binding in parental MDA-MB-231 cells (231), or in 231 cells stably transformed with α9-nAChR siRNA (Si α9) or scrambled control (Sc) siRNA (right panel). The experiment was repeated four times with duplicate samples. Data points represent the mean; error bars indicate the 95% confidence intervals. […] G) Analysis of α9-nicotinic acetylcholine receptor (α9-nAChR) expression in human breast carcinoma tissues. Determination of α9-nAChR mRNA levels using reverse transcription-polymerase chain reaction (RT-PCR). […] PCR was performed for 30 cycles.
(§1) Cell growth, proliferation, and viability were determined using the 3-(4,5-dimethylthiazol-2-yl)-2,5-diphenyltetrazolium (MTT) assay (Chou Y H, Ho Y S, Wu C C, et al. Food Chem Toxicol 2007; 45(8):1356-67.) Stock solutions of 10 mM nicotine and NNK (Chemsyn, Lenexa, Kans.) were prepared in dimethyl sulfoxide (DMSO). This assay was repeated four times with duplicate samples.

The subject of assay [2] is MDA-MB-231 cells. Nature of the assay: Soft agar growth assay of MDA-MB-231 cells. Type of assay: cell-based, human. As to conditions: parental MDA-MB-231 cells; nicotine 10 μM or NNK 1 μM. The source says:
(§2) The experiment was repeated four times with duplicate samples.
The assay was repeated four times with duplicate samples.

Assay [3] concerns MDA-MB-231 tumor xenografts. In words: MDA-MB-231 α9-nAChR siRNA-expressing xenografts in NOD-SCID mice. Format: in vivo, mouse.
Text: as §2

The subject of assay [4] is MCF-10A (DOX) cells. In words: MTT cell proliferation assay in MCF-10A (DOX) cells. Format: cell-based, human. To be noted: nicotine 10 μM, NNK 1 μM; DOX+ vs DOX− cells. As to the method:
Data points represent the mean; error bars indicate 95% confidence intervals. […] The experiment was repeated four times with duplicate samples. […] After transplantation, mice bearing tumors were treated with DOX (0.5 mg/mL) via drinking water for 14 days. After that, all mice bearing tumors (200 mm^3) were divided into either α9-nAChR mRNA expressing (DOX−) or non-expressing (DOX+) groups in the presence or absence of nicotine (10 mg/mL) in their drinking water (n=5, per group). […] Error bars represent 95% confidence intervals.
as §1

Assay [5] relates to MCF-10A (DOX) cells. In words: Long-term transformation of MCF-10A (DOX) cells, soft agar colony formation. To be noted: soft agar 21 days. Type of assay: cell-based, human.
Text: Anchorage-independent growth of α9-nAChR overexpressing (MCF-10A-Nic (DOX) and MCF-10A-NNK (DOX)) and siRNA-expressing MDA MB-231 Si α5, Si α9, and Sc cells were examined in soft agar assays. The base layer consisted of 0.9% low-melting point SeaPlaque agarose (Sigma, St. Louis, Mo.) in complete MCF-10A culture medium. Soft agar was composed of 0.4% SeaPlaque agarose in complete DMEM and F12 culture medium was mixed with 1×10^4 cells and plated on top of the base layer in 60-mm-diameter culture dishes. […] Soft agar cultures were maintained at 37° C. for an additional 21 days and observed for the appearance of colonies with a Leica DMI 4000B Microscope Imaging System (Leica Microsystems, Wetzlar, Germany). The assay was repeated four times with duplicate samples.
The test system of assay [6] is MCF-10A-Nic (DOX) xenografts. As to conditions: after 7 weeks; for tumor volume: with nicotine 10 mg/mL drinking water. As to the method:
BALB/c-nu/nu mice (female, 4 weeks old, n=5 per group) purchased from National Science Council Animal Center, Taipei, were injected subcutaneously with MCF-10A-Nic (DOX) and vector control (5×10^6) cells. After transplantation, mice bearing tumors were treated with DOX (0.5 mg/mL) via drinking water for 14 days. After that, all mice bearing tumors (200 mm^3) were divided into either α9-nAChR mRNA expressing (DOX−) or non-induced (DOX+) groups, the latter of which could express the α9-nAChR mRNA at basal level. The mice were simultaneously treated with or without nicotine (10 mg/mL) in their drinking water for an additional 6 weeks. The xenografts were weighed and either snap-frozen in dry ice and stored at −80° C. for RNA and protein analysis or formalin-fixed and paraffin-embedded for immunohistochemical observation.
Examination was conducted as to whether induction of α9-nAChR in the presence or absence of nicotine stimulation in vivo would effectively promote tumor growth (FIG. 6). BALB/c-nu/nu mice (female, 4 weeks old) were injected subcutaneously with transformed MCF-10A-Nic (DOX) cells (5×10^6). After that, all mice bearing tumors (200 mm^3) were divided into either α9-nAChR mRNA expressing (DOX−) or non-expressing (DOX+) groups in the presence or absence of nicotine (10 mg/mL) in their drinking water (n=5, per group).

Assay [7] addresses T1, endogenous α9-nAChR receptor in human breast cancer MDA-MB-231 cells (Homo sapiens, UniProt Q9UGM1).
T1 construct: endogenous α9-nAChR receptor in human breast cancer MDA-MB-231 cells; endogenous in cells; host or cells: MDA-MB-231 (parental, Sc and Si α9 clones)
In words: [^3H]-nicotine equilibrium binding in MDA-MB-231 cells. As to the method: L-(−)-[N-methyl-^3H]-nicotine (71-75 Ci/mmol) was purchased from Dupont/NEN Research Products (Boston, Mass.), and free base nicotine (99% pure) was purchased from the Eastman Kodak Co. (Rochester, N.Y.). To study the uptake of [^3H]-nicotine in MDA-MB-231 cell monolayers (2×10^6 cells per well), cells were rinsed three times with a buffer containing 140 mM NaCl, 5.4 mM KCl, 1.8 mM CaCl2, 0.8 mM MgSO4, 5 mM glucose, and 25 mM Hepes (pH 7.4). Saturation binding studies were conducted for 2 hours at 37° C. in six-well plates, and used at least eight different concentrations of [^3H]-nicotine ranging from 1 to 15 nM. Time-dependent association kinetic studies in MDA-MB-231, Si α9, Sc cells were conducted using a single concentration of [^3H]-nicotine (7 nM) for treatments of 5, 10, 15, 30, 60 and 90 minutes. For determination of nonspecific binding, 10 μM unlabeled nicotine was pre-added to medium, after which cells were washed three times with ice-cold buffer and then exposed to [^3H]-nicotine. [^3H]-nicotine uptake was stopped by aspiration of the uptake medium and washing the wells three times with ice-cold buffer. The cells were lysed in 1 mL of 0.5% Triton X-100, and aliquots of the cell lysates were transferred to scintillation vials to determine the incorporated radioactivity by scintillation counting. The assay was repeated four times with duplicate samples.

[8] abbreviates: nicotine-treated (10 mg/mL drinking water) mice with parental MDA-MB-231 tumors.
Setting [9] is: Sc cells, day 11, nicotine 10 μM, NNK 1 μM.
Setting [10] is: Si α5 cells, day 11, nicotine 10 μM, NNK 1 μM.

T1 sequence (Q9UGM1 26-479 limits assumed): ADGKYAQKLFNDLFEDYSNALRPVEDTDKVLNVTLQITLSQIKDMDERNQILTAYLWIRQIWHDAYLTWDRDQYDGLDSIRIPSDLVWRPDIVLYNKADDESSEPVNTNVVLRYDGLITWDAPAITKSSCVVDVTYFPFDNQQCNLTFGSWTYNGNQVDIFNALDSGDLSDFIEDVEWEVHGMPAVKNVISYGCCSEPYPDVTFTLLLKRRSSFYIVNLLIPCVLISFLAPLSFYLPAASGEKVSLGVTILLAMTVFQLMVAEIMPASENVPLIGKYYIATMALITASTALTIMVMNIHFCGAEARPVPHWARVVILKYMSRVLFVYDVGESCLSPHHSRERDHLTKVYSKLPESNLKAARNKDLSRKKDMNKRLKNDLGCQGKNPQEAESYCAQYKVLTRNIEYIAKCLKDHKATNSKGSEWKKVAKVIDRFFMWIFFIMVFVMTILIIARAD

Turning to `CN1CCCC1c1cccnc1` (stereo not shown) [nicotine], in assay [1], the “difference in mean OD540 nm vs control (DMSO)” value (from here on “difference in mean OD540 nm”) was 0.58 and the “mean OD540 nm” value is given as 1.35. Besides, in assay [2], the “no. of colonies in parental cells” value turned out to be 341 colonies. In addition, in assay [3] (mice injected with MDA-MB-231 (231) or Sc cells (FIG. 3D)), the “tumor weight in nicotine-fed mice” value is on record as “heavier”. Also, in assay [3] (setting [8]), the “tumor volume at 6 weeks treatment” value stood at 2993.2 mm^3 and the “tumor weight at 6 weeks” value worked out at 4.38 g. Also, in assay [4], the “induction of cell proliferation” value is given as “induced cell proliferation was observed only in the MCF-10A (DOX+) cell line”. The “colonies formed in soft agar” value in assay [5] (MCF-10A (DOX−) cells, nicotine 10 μM for 60 days) was “six”. In addition, in assay [6] (+DOX), the “difference in tumor volume, with vs without nicotine” value turned out to be 235.4 mm^3 and the tumor volume came out at 501.6 mm^3. Further, in assay [6] (−DOX), the “difference in tumor volume, with vs without nicotine” value is 277.4 mm^3 and the tumor volume worked out at 898.6 mm^3.
On to `CN1CCCC1c1cccnc1` [[^3H]-nicotine, L-(−)-[N-methyl-^3H]-nicotine], for which the “time at which maximum binding activity is attained” value in assay [7] (MDA-MB-231 cells, [^3H]-nicotine 7 nM) turned out to be 60 min. Also, the Kd in assay [7] (MDA-MB-231 cells, saturation binding 2 hours at 37° C., read-out: dissociation constant (Kd) of [^3H]-nicotine binding) is 3 nM. Moreover, the “[^3H]-nicotine bound by parental cells” value in assay [7] (parental MDA-MB-231 cells) was found to be 489.7 DPM.
With `CN(CCCC(=O)c1cccnc1)N=O` [NNK, 4-(methylnitrosamino)-1-(3-pyridyl)-1-butanone], in assay [1] (setting [9]), the “difference in mean OD540 nm” value is given as 1.00 and the “mean OD540 nm” value is on record as 1.77. Moreover, in assay [1] (setting [10]), the “difference in mean OD540 nm” value is reported as 0.99 and the “mean OD540 nm” value amounted to 1.78. For the same molecule, the “no. of colonies in parental cells” value in assay [2] turned out to be 406 colonies. In assay [4], the “induction of cell proliferation” value is reported as “induced cell proliferation was observed only in the MCF-10A (DOX+) cell line”. Moreover, in assay [5] (NNK 1 μM for 60 days), the “colonies formed, DOX− compared with DOX+ cells” value is reported as “More colonies”.

(Values after patent US8361984B2, “Small interfering RNAs and methods for prevention, inhibition and/or treatment of malignant progression of breast cancer” (Taipei Medical University, priority 2011, dated 2013).)
